Results from US10494332B2, “Protein tyrosine phosphatases or SHP2 inhibitors and uses thereof” (Indiana University Research and Technology Corporation, priority 2015, dated 2019).
Several values for one entry are separate records, joined by “and”; a condition that tells them apart may be missing. Equal entries are not always repeated. Entries after “also recorded” stand apart in the source; their conditions may differ. Where two headings read alike, the source gives them in different places.

Columns and labels:
[1] = Stability in buffer solutions by LC-MS; type: physicochemical
Procedure: (§1) Agilent Technologies 6130 quadrupole LC-MS instrument was used for the LC-MS studies. A C18 reserved phase column (phenomenex, 50×4.6 mm) was used as stationary phase, water and methanol (both containing 0.1% formic acid) were used as mobile phase (gradient: 0-100% methanol, flow 0.8 mL/min, run time 15 minutes), and UV absorbance at the fixed wavelength of 254 nm and positive and negative ESI-MS data were recorded. The sample was adjusted to have a concentration at 0.1 mg/mL, and the injection volume of each sample was 0.2 μL. The retention time and corresponding ESI-MS data were used as identity of molecules.

SHP2/R362A = SHP2/R362A (Homo sapiens, UniProt Q06124, R362A); test: SHP2 mutant inhibition assay (pNPP); type: biochemical
PP5 = target: T1, PP5 (Homo sapiens, UniProt P53041); test: biochemical
T1 sequence (P53041 1-499): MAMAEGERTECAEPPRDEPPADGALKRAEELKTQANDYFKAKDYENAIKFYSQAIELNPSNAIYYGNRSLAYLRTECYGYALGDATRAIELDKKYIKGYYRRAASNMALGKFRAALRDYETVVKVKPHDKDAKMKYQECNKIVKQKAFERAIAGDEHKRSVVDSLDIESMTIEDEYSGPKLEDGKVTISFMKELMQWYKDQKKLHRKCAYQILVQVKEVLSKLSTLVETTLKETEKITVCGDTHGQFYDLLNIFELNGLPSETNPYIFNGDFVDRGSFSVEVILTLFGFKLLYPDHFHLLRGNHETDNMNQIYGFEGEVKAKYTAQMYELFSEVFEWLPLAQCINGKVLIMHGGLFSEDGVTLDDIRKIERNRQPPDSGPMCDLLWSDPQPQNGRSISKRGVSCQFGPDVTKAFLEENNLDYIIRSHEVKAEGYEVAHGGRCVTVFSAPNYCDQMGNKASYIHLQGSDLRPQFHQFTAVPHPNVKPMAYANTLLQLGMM

PTPμ = PTPμ (Homo sapiens, UniProt P28827); test: biochemical
SHP2 [2] = target: T2, SHP2 (Homo sapiens, UniProt Q06124); test: SHP2 phosphatase inhibition assay (pNPP); type: biochemical; conditions: for Fold selectivity for SHP2 against PTPs examined: cefsulodin: with the exception of SHP1; for Mode of SHP2 inhibition: with respect to pNPP
T2 sequence (Q06124 224-528): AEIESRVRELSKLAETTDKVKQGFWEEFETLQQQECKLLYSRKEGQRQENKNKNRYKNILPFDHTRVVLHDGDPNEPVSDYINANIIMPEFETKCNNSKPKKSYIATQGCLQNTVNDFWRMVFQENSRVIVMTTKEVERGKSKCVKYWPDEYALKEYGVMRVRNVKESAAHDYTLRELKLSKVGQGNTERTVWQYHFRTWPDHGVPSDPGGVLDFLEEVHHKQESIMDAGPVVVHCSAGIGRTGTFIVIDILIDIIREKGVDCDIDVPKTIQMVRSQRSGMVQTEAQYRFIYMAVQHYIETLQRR

SHP2/E508A = SHP2/E508A (Homo sapiens, UniProt Q06124, E508A); test: SHP2 mutant inhibition assay (pNPP); type: biochemical; conditions: pH 7.0
SHP2 [3] = target: SHP2 (Homo sapiens, UniProt Q06124); test: Covalent modification of SHP2 by QTOF ESI-MS / LC-MS; conditions: 100 μM compound; cefsulodin three hours, phenyl vinyl sulfone 10 minutes
Procedure: Agilent 6520 Accurate-Mass was used for the Q-TOF ESI-MS studies. Water and acetonitrile (both containing 0.1% formic acid) were used as eluent (80% water, flow 50 μL/min, run time 5 minutes). ESI positive mode was used with mass range from 300 to 1700, the gas temperature was 325° C., and vaporizer temperature was: […]. The sample was adjusted to have a concentration at 0.1 mg/mL, the injection volume of each sample was 1 μL. Mass hunter software was used for protein deconvolution data analysis to calculate the molecular weight of the protein.
as §1

M. tuberculosis H37Rv = test: Microplate Alamar Blue assay (MABA) MIC; type: cell-based, Mycobacterium tuberculosis
M. tuberculosis Erdman = test: Microplate Alamar Blue assay (MABA) MIC; type: cell-based; conditions: Mycobacterium tuberculosis, minimum inhibitory concentration, read-out: In vitro anti-Mtb activity MABA-MIC Erdman
[4] = tested on: M. tuberculosis (Erdman and H37Rv) in J774 macrophages; test: Macrophage assay: growth of M. tuberculosis in IFN-γ activated J774 macrophages; type: cell-based, Mycobacterium tuberculosis
[5] = Pharmacokinetics and bioavailability in guinea pigs; type: in vivo, guinea pig; conditions: oral
Procedure: All drugs were suspended in 1% DMSO, 0.5% DEA, 48.5% PEG 400, and 50% water. Blood was collected for analysis of these drugs in plasma pre-dose and at 1, 4, 8, 24, and 48 h post-dose. Plasma was separated and stored at −70° C. until analysis. Plasma drug concentrations were determined by liquid chromatography-mass spectrometry and liquid chromatography-tandem mass spectrometry over the concentration range of 0.005-1 mg/L with dilution to 10 mg/L. Pharmacokinetic variables were calculated from individual drug concentration-time data using non-compartmental methods as implemented in WinNonlin version 5.0 (Pharsight, Mountain View, Calif.) as described earlier.

[6] = tested on: MDA-MB-231 breast cancer cell line; test: MTT cell proliferation assay; type: cell-based, human; conditions: 20 μM and 40 μM, 2 days
Procedure: (§2) Human non-small cell lung carcinoma cell line H1975 was cultured at 37° C. and 5% CO2 in RPMI-1640 (Corning) supplemented with 10% fetal bovine serum (HyClone). Human breast cancer cell line MDA-MB-231 was cultured in DMEM supplemented with 10% fetal bovine serum. For cell proliferation assay, 2˜3×10^3 cells were seeded in each well of 96-well plates. After treating cells with compounds for 2 days, cells were incubated with 50 μg/ml MTT (3-(4,5-Dimethylthiazol-2-yl)-2,5-diphenyltetrazolium bromide) for ˜3-4 hours. Then, the culture medium was removed, DMSO was added to dissolve the formazan crystals. Wells containing only media were used for background correction. The optical density was measured spectrophotometrically at 540 nm. For signaling analysis, cells were serum-starved overnight followed by treatment with vehicle or compounds for 3 hours, and then either left un-stimulated or stimulated with 5 μg/ml EGF or 10 nM PMA (Sigma) for indicated time. Cells were lysed and the lysates were electrophoresed on a 10% polyacrylamide gel, and then transferred to a nitrocellulose membrane, and probed with anti-phospho-ERK1/2 and anti-ERK1/2 (Cell Signaling) antibodies followed by incubation with horseradish peroxidase-conjugated secondary antibodies. The blots were developed by the enhanced chemiluminescence technique using the SuperSignal West Pico Chemiluminescent substrate (Pierce).

[7] = tested on: H1975 non-small cell lung cancer (NSCLC) cell line; test: MTT cell proliferation assay; type: cell-based, human; conditions: 20 μM and 40 μM, 2 days
Procedure: as §2

[8] = tested on: EGF-mediated ERK1/2 phosphorylation in H1975 cells; test: EGF-induced ERK1/2 phosphorylation immunoblot; type: cell-based, human; conditions: compound 7 at 40 μM
Procedure: as §2

SKBR3 cells = test: Cell growth in 3D Matrigel; type: cell-based; conditions: 5 days
Procedure: (§3) Approximately 300,000 SKBR3 cells were seeded into 150 μL of growth factor reduced Matrigel (BD) that was then covered with 2 mLs of media containing either 20 μL vehicle (DMSO) or the indicated concentrations of compound 2. Cells were then imaged at 24-hour intervals using a NIKON SMZ1500 stereomicroscope. After 5 days the cells were recovered from the Matrigel by the following method. Media was aspirated and cells were washed with 500 μL of cold PBS. 150 μL of RIPA lysis buffer supplemented with ProteCEASE-50. EDTA Free protease inhibitors (GBiosciences) was added to the Matrigel. Cells were scraped into a slurry and instantly frozen using dry ice for 5 minutes. After thawing tubes were spun down at 4° C. for 10 minutes at 14K rpm. Proteins were then resolved by SDS-PAGE and the relative levels of total and phospho-ERK1/2 were detected by immunoblot analysis.

[9] = tested on: PMA-stimulated ERK1/2 phosphorylation; test: PMA-induced ERK1/2 phosphorylation immunoblot; type: cell-based, human
Procedure: as §2

[10] = tested on: ERK1/2 phosphorylation in SKBR3 cells; test: ERK1/2 immunoblot of cells recovered from Matrigel; type: cell-based; conditions: 5 days
Procedure: as §3

[11] = Example 9: SHP2 catalytic domain 20 nM, pNPP 3 mM, pH 7.0, 25° C., read-out: IC50 SHP2

Chain of SHP2/R362A (Q06124 224-528 R362A): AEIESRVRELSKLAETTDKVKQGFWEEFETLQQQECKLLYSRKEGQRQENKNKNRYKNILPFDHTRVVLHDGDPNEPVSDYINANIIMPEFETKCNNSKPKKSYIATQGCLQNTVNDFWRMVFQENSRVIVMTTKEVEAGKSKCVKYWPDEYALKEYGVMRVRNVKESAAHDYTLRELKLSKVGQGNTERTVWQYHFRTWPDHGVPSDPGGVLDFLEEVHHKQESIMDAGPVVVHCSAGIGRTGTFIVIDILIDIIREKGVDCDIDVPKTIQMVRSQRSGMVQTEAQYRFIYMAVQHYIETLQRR
Chain of PTPμ (P28827 21-1452): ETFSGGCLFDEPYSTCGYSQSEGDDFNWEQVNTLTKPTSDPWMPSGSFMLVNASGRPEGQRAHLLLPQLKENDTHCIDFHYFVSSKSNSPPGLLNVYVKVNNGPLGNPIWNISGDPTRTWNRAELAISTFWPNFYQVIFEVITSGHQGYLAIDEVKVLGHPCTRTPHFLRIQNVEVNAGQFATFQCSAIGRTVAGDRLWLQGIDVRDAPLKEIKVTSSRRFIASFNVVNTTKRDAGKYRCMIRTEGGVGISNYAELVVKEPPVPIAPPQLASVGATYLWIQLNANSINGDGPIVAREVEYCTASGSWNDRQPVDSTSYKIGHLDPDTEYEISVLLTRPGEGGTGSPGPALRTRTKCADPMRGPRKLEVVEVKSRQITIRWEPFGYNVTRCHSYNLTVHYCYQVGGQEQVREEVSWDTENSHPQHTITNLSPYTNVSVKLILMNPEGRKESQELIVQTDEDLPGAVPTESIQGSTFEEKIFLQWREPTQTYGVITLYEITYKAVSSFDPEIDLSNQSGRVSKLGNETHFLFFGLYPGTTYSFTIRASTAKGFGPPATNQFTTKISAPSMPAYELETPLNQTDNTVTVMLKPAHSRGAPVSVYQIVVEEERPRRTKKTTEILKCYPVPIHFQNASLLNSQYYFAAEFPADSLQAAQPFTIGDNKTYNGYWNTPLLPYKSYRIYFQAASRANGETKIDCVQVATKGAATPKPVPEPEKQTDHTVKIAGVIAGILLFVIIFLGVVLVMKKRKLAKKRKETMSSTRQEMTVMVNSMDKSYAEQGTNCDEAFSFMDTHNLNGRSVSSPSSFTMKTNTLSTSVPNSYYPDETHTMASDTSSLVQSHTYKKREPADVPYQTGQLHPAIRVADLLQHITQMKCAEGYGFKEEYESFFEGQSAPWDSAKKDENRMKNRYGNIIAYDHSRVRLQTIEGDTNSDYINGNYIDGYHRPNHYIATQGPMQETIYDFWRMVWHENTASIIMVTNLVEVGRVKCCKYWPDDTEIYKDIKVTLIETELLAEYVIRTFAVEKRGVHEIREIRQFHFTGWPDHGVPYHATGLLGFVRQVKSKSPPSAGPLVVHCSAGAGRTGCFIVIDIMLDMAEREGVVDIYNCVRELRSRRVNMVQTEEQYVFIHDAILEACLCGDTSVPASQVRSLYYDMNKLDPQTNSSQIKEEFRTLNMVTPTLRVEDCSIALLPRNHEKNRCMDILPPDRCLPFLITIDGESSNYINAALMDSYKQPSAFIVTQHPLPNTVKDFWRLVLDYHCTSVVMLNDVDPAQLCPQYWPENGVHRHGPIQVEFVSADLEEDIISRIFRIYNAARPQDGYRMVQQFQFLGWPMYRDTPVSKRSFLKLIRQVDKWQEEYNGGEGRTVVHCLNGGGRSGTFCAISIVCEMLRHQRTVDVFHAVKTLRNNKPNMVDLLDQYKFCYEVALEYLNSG
Chain of SHP2/E508A (Q06124 224-528 E508A): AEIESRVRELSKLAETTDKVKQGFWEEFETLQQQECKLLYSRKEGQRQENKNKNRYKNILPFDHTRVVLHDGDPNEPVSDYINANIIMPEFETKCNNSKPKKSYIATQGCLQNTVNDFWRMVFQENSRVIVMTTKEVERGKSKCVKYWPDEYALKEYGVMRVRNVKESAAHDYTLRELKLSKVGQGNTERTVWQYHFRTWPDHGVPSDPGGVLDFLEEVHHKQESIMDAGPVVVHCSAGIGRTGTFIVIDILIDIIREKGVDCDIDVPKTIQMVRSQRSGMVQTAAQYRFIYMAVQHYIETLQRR

## NC(=O)c1cc[n+](CC2=C(C(=O)O)N3C(=O)[C@@H](NC(=O)[C@@H](c4ccccc4)S(=O)(=O)[O-])[C@H]3SC2)cc1 [Cefsulodin, reference compound]
[1]; 20 mM MES, 250 mM NaCl, 1 mM EDTA, LC-MS
  Degradation in pH 5.8 MES buffer: negligible
[1]; 33 mM Citric acid, 67 mM BIS-TRIS Propane, LC-MS
  Degradation in pH 7.4 CBTP buffer: obvious
[1]; LC-MS
  Degradation in CBTP buffer at pH 9.1: further accelerated
  Time stable in MES buffer pH=5.8: at least 2 days
  Time until compound was gone in CBTP buffer pH=9.1: ≤ 12 h
[1]; final pH=7.1, 20° C., with SHP2 and DTT
  Time to complete degradation under crystallization condition: ≤ 2 days
SHP2/R362A; pNPP, pH 7.0
  IC50: 46.5 ± 4.9 µM
SHP2/R362A; vs wild-type SHP2
  Fold increase of IC50 by replacement of R362 with alanine: 3 fold
PP5
  IC50: > 200 µM
PTPμ
  IC50: > 200 µM
SHP2 [2]; [11]
  IC50: 16.8 µM and 16.7 µM
SHP2 [2]; Lineweaver-Burk, pNPP as substrate
  Ki: 6.6 ± 0.2 µM
SHP2 [2]
  Fold selectivity for SHP2 against PTPs examined: greater than 10 fold
  Mode of SHP2 inhibition: competitive inhibitor
SHP2 [2]; incubated with SHP2 for 30 minutes prior to addition of pNPP, read-out: IC50 SHP2, inhibitor pre-mixed with SHP2
  IC50: 16.8 ± 1.8 µM
SHP2 [2]; incubated with pNPP for 30 minutes prior to addition of SHP2, read-out: IC50 SHP2, inhibitor pre-mixed with pNPP
  IC50: 17.5 ± 2 µM
SHP2 [2]; listed as cefsulodin
  Mode of SHP2 inhibition: competitive and reversible SHP2 inhibitor
SHP2/E508A
  IC50: 19 ± 1 µM
SHP2 [3]
  Covalent adduct formation with SHP2 (QTOF ESI-MS): no covalent adduct formation

## O=C(O)c1cc2c(C#Cc3cccc(C(F)(F)F)c3)c(-c3ccccc3)oc2cc1O [Compound L01Z08]
M. tuberculosis H37Rv
  Activity in standard MIC assay: inactive
M. tuberculosis H37Rv; Mycobacterium tuberculosis, H37RV, minimum inhibitory concentration, read-out: In vitro anti-Mtb activity MABA-MIC H37Rv
  MIC: > 10 µM
M. tuberculosis Erdman
  MIC: > 10 µM
[4]; J774A.1 macrophages, low micromolar concentrations
  Anti-Mtb activity in infected macrophages: potent anti-Mtb activity
[4]; Mycobacterium tuberculosis, J774, IC90 in macrophages activated with interferon-γ, read-out: In vitro anti-Mtb activity, Mtb-infected macrophages (IC90)
  IC90: < 5 µM
[5]
  Oral bioavailability and half-life in guinea pigs: good oral bioavailability and half-life

## O=C(Nc1ccc(I)cc1)C(=O)Nc1ccc(NC(=O)C(c2ccccc2)S(=O)(=O)O)cc1 (stereo not shown) [Compound 2, 2-((4-(2-((4-iodophenyl)amino)-2-oxoacetamido)phenyl)amino)-2-oxo-1-phenylethanesulfonic acid]
[6]
  MDA-MB-231 cell survival/growth (MTT): dose dependently inhibited; also recorded: significantly (**p<0.01) reduced cell survival
[7]
  H1975 cell proliferation (MTT): reduce H1975 cell proliferation in a dose dependent manner; also recorded: dose dependently inhibited; also recorded: significantly (**p<0.01) reduced cell proliferation
PP5
  IC50: > 10 µM
[8]
  Effect on EGF-mediated ERK1/2 phosphorylation: reduced EGF-mediated ERK1/2 phosphorylation in a dose-dependent manner; also recorded: decrease the EGF-mediated ERK1/2 phosphorylation in a dose dependent manner
PTPμ
  IC50: > 10 µM
SHP2 [2]; [11]
  IC50: 1.51 ± 0.06 µM
SHP2 [2]
  Fold selectivity for SHP2 against PTPs examined: at least 4 fold
SKBR3 cells; 20 μM
  SKBR3 cell growth in Matrigel: partial inhibition
SKBR3 cells; 40 μM
  SKBR3 cell growth in Matrigel: almost completely absent
[9]
  Effect on PMA-stimulated ERK1/2 phosphorylation: no effect on PMA-stimulated ERK1/2 phosphorylation
[10]; 20 μM
  ERK1/2 activity in SKBR3 cells in Matrigel: partial inhibition
[10]; 40 μM
  ERK1/2 activity in SKBR3 cells in Matrigel: barely detectable
